# Source: ChEMBL document CHEMBL1926681, “Novel inhibitors of epidermal growth factor receptor: (4-(Arylamino)-7H-pyrrolo[2,3-d]pyrimidin-6-yl)(1H-indol-2-yl)methanones and (1H-indol-2-yl)(4-(phenylamino)thieno[2,3-d]pyrimidin-6-yl)methanones” (Bioorg Med Chem, 2012)
# Calls of active or inactive are those of the source. No cut-off for these calls is given here.
# Key:
# [1] = Cytotoxicity against human PAXF 1657L cells after 4 days by propidium iodide staining-based fluorometric analysis; assay type: functional, cell-based; settings: 96 h
# NCI-H460 = assay: Cytotoxicity against human H460 cells after 4 days by propidium iodide staining-based fluorometric analysis; assay type: functional, cell-based; settings: NCI-H460, 96 h
# PANC-1 = assay: Cytotoxicity against human PANC1 cells after 4 days by propidium iodide staining-based fluorometric analysis; assay type: functional, cell-based; settings: PANC-1, 96 h
# [2] = Cytotoxicity against human PC3M cells after 4 days by propidium iodide staining-based fluorometric analysis; assay type: functional, cell-based; settings: PC-3M, 96 h
# [3] = Cytotoxicity against human LXFA 629L cells after 4 days by propidium iodide staining-based fluorometric analysis; assay type: functional, cell-based; settings: 96 h
# [4] = Cytotoxicity against human LXFA 526L cells after 4 days by propidium iodide staining-based fluorometric analysis; assay type: functional, cell-based; settings: 96 h
# CWR22R = assay: Cytotoxicity against human 22Rv1 cells after 4 days by propidium iodide staining-based fluorometric analysis; assay type: functional, cell-based; settings: 22Rv1, 96 h
# [5] = Cytotoxicity against human MEXF 276L cells after 4 days by propidium iodide staining-based fluorometric analysis; assay type: functional, cell-based; settings: MEXF276L, 96 h
# [6] = Cytotoxicity against human UXF 1138L cells after 4 days by propidium iodide staining-based fluorometric analysis; assay type: functional, cell-based; settings: 96 h
# [7] = molecular target: Receptor tyrosine-protein kinase erbB-2 (Homo sapiens) (UniProt P04626); assay: Inhibition of Erbb2 using poly(Glu,Tyr)4:1 as substrate and [gamma33P]ATP at 1 uM after 60 mins by scintillation counting
# [8] = Cytotoxicity against human MEXF 1341L cells after 4 days by propidium iodide staining-based fluorometric analysis; assay type: functional, cell-based; settings: 96 h
# OVCAR-3 = assay: Cytotoxicity against human OVCAR3 cells after 4 days by propidium iodide staining-based fluorometric analysis; assay type: functional, cell-based; settings: OVCAR-3, 96 h
# [9] = Cytotoxicity against human LIXF 575L cells after 4 days by propidium iodide staining-based fluorometric analysis; assay type: functional, cell-based; settings: 96 h
# [10] = Cytotoxicity against human MDA231 cells after 4 days by propidium iodide staining-based fluorometric analysis; assay type: functional, cell-based; settings: MDA-MB-231, 96 h
# [11] = Cytotoxicity against human RXF 486L cells after 4 days by propidium iodide staining-based fluorometric analysis; assay type: functional, cell-based; settings: 96 h
# [12] = Cytotoxicity against human RXF 393NL cells after 4 days by propidium iodide staining-based fluorometric analysis; assay type: functional, cell-based; settings: 96 h
# [13] = Cytotoxicity against human PXF 698L cells after 4 days by propidium iodide staining-based fluorometric analysis; assay type: functional, cell-based; settings: 96 h
# SAOS-2 = assay: Cytotoxicity against human Saos2 cells after 4 days by propidium iodide staining-based fluorometric analysis; assay type: functional, cell-based; settings: SAOS-2, 96 h, read-out: IC50
# HCT-116 = assay: Cytotoxicity against human HCT116 cells after 4 days by propidium iodide staining-based fluorometric analysis; assay type: functional, cell-based; settings: HCT-116, 96 h
# [14] = molecular target: Vascular endothelial growth factor receptor 2 (Homo sapiens) (UniProt P35968); assay: Inhibition of VEGFR2 using poly(Glu,Tyr)4:1 as substrate and [gamma33P]ATP at 1 uM after 60 mins by scintillation counting
# HT-29 = assay: Cytotoxicity against human HT-29 cells after 4 days by propidium iodide staining-based fluorometric analysis; assay type: functional, cell-based; settings: HT-29, 96 h
# MKN-45 = assay: Cytotoxicity against human MKN45 cells after 4 days by propidium iodide staining-based fluorometric analysis; assay type: functional, cell-based; settings: MKN-45, 96 h
# [15] = Cytotoxicity against human BXF 1218L cells after 4 days by propidium iodide staining-based fluorometric analysis; assay type: functional, cell-based; settings: 96 h
# [16] = molecular target: Tyrosine-protein kinase ABL1 (Homo sapiens) (UniProt P00519); assay: Inhibition of ABL1 using poly(Ala, Glu, Lys, Tyr) as substrate and [gamma33P]ATP at 1 uM after 60 mins by scintillation counting
# [17] = Cytotoxicity against human BXF T24 cells after 4 days by propidium iodide staining-based fluorometric analysis; assay type: functional, cell-based; settings: T-24, 96 h
# [18] = molecular target: T1, Epidermal growth factor receptor (Homo sapiens, UniProt P00533); assay: Inhibition of EGFR using poly(Glu,Tyr)4:1 as substrate and [gamma33P]ATP at 1 uM after 60 mins by scintillation counting
# MCF7 = assay: Cytotoxicity against human MCF7 cells after 4 days by propidium iodide staining-based fluorometric analysis; assay type: functional, cell-based; settings: MCF7, 96 h
# CAL-27 = assay: Cytotoxicity against human CAL27 cells after 4 days by propidium iodide staining-based fluorometric analysis; assay type: functional, cell-based; settings: CAL-27, 96 h
# LNCaP = assay: Cytotoxicity against human LNCAP cells after 4 days by propidium iodide staining-based fluorometric analysis; assay type: functional, cell-based; settings: 96 h
# [19] = Cytotoxicity against human PXF 1752L cells after 4 days by propidium iodide staining-based fluorometric analysis; assay type: functional, cell-based; settings: 96 h
# [20] = molecular target: T1, Epidermal growth factor receptor; assay: Inhibition of EGFR autophosphorylation in EGF-stimulated human A431 cells after 1 hr by immunoblotting; assay type: cell-based, A-431
# RKO = assay: Cytotoxicity against human RKO cells after 4 days by propidium iodide staining-based fluorometric analysis; assay type: functional, cell-based; settings: 96 h
# [21] = Cytotoxicity against human MEXF 462NL cells after 4 days by propidium iodide staining-based fluorometric analysis; assay type: functional, cell-based; settings: 96 h
# [22] = Cytotoxicity against human GXF251L cells after 4 days by propidium iodide staining-based fluorometric analysis; assay type: functional, cell-based; settings: GXF 251L, 96 h
# [23] = Cytotoxicity against human MAXF 401NL cells after 4 days by propidium iodide staining-based fluorometric analysis; assay type: functional, cell-based; settings: 96 h
# [24] = Cytotoxicity against human DIFI cells after 4 days by propidium iodide staining-based fluorometric analysis; assay type: functional, cell-based; settings: 96 h
# [25] = Cytotoxicity against human BXF 1352L cells after 4 days by propidium iodide staining-based fluorometric analysis; assay type: functional, cell-based; settings: 96 h
# [26] = molecular target: T1, Epidermal growth factor receptor; assay: Inhibition of EGFR using poly(Glu,Tyr)4:1 as substrate and [gamma33P]ATP after 60 mins by scintillation counting
# [27] = Cytotoxicity against human LXFA 289L cells after 4 days by propidium iodide staining-based fluorometric analysis; assay type: functional, cell-based; settings: 96 h
# [28] = Cytotoxicity against human OVXF 899L cells after 4 days by propidium iodide staining-based fluorometric analysis; assay type: functional, cell-based; settings: 96 h
# DU-145 = assay: Cytotoxicity against human DU145 cells after 4 days by propidium iodide staining-based fluorometric analysis; assay type: functional, cell-based; settings: DU-145, 96 h
# [29] = Cytotoxicity against human PXF 1118L cells after 4 days by propidium iodide staining-based fluorometric analysis; assay type: functional, cell-based; settings: 96 h
# [30] = molecular target: Hepatocyte growth factor receptor (Homo sapiens) (UniProt P08581); assay: Inhibition of MET using poly(Ala, Glu, Lys, Tyr) as substrate and [gamma33P]ATP at 1 uM after 60 mins by scintillation counting
# [31] = Cytotoxicity against human RXF 1781L cells after 4 days by propidium iodide staining-based fluorometric analysis; assay type: functional, cell-based; settings: 96 h
# [32] = Cytotoxicity against human PAXF 546L cells after 4 days by propidium iodide staining-based fluorometric analysis; assay type: functional, cell-based; settings: 96 h
# [33] = Cytotoxicity against human LXFL 529L cells after 4 days by propidium iodide staining-based fluorometric analysis; assay type: functional, cell-based; settings: 96 h
# TE-671 = assay: Cytotoxicity against human TE671 cells after 4 days by propidium iodide staining-based fluorometric analysis; assay type: functional, cell-based; settings: TE-671, 96 h
# [34] = Cytotoxicity against human CXF 269L cells after 4 days by propidium iodide staining-based fluorometric analysis; assay type: functional, cell-based; settings: 96 h
# [35] = Cytotoxicity against human LXFL 1121L cells after 4 days by propidium iodide staining-based fluorometric analysis; assay type: functional, cell-based; settings: 96 h
# T1 sequence (P00533 whole entry): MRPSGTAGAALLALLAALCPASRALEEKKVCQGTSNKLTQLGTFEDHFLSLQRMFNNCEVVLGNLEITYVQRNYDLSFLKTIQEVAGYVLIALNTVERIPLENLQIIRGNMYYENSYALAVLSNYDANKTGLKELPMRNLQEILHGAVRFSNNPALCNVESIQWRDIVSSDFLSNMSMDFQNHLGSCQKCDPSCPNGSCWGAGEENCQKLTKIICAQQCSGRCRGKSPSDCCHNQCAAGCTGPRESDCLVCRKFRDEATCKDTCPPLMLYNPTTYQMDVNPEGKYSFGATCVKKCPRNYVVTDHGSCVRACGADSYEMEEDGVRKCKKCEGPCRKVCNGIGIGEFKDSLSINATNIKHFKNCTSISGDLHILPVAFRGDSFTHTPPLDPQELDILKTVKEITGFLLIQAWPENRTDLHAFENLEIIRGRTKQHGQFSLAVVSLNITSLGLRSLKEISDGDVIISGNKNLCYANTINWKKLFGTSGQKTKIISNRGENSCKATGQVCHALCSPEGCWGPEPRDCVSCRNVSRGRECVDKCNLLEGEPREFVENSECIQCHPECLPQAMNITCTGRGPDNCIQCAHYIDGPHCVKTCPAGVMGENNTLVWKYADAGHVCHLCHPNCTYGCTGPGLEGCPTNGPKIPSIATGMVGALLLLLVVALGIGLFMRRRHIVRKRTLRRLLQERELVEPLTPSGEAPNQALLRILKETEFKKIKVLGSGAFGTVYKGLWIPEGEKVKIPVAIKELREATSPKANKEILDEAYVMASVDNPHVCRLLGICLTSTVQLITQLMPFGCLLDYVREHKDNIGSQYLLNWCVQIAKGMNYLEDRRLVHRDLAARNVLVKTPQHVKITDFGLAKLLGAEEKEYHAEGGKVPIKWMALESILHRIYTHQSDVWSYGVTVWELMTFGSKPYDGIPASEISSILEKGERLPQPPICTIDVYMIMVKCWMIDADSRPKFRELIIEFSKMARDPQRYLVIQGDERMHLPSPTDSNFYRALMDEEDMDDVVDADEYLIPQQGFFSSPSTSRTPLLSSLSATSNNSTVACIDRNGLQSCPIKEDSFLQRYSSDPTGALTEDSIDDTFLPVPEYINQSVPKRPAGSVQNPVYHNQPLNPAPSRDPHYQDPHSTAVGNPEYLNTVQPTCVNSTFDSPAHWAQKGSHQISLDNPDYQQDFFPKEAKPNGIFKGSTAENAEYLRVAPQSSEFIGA
# Sequence of Receptor tyrosine-protein kinase erbB-2 (Homo sapiens) (P04626 whole entry): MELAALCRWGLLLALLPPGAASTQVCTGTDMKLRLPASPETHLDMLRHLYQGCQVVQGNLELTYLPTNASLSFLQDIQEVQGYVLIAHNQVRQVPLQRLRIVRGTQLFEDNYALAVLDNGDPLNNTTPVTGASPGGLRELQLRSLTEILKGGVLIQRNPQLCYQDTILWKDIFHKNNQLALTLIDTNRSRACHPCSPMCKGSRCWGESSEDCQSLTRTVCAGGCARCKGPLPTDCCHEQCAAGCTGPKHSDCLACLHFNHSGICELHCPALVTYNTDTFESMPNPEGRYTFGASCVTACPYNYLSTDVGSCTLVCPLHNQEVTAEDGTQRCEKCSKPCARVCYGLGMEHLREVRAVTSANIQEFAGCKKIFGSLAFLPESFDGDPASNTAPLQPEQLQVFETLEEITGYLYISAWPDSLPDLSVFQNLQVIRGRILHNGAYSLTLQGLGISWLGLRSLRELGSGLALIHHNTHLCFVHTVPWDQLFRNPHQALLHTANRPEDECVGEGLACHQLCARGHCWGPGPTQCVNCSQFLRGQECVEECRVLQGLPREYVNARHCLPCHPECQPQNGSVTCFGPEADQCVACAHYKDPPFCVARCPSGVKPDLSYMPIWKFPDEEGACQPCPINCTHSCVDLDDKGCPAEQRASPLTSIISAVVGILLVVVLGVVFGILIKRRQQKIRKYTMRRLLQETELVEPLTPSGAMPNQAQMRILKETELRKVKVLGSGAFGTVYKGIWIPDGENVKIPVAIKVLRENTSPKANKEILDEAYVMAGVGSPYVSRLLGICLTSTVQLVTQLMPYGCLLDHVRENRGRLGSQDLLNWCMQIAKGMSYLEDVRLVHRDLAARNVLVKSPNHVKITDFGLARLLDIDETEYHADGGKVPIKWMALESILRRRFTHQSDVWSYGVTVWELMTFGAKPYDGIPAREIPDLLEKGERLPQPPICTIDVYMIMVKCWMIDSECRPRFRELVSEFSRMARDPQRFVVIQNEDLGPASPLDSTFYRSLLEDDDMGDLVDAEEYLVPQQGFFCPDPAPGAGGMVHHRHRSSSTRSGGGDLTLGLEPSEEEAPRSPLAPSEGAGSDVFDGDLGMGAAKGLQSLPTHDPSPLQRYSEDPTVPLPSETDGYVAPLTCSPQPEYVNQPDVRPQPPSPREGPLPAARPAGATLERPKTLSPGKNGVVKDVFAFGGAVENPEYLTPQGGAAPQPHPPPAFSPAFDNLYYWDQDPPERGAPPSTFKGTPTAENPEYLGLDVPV
# Sequence of Vascular endothelial growth factor receptor 2 (Homo sapiens) (P35968 whole entry): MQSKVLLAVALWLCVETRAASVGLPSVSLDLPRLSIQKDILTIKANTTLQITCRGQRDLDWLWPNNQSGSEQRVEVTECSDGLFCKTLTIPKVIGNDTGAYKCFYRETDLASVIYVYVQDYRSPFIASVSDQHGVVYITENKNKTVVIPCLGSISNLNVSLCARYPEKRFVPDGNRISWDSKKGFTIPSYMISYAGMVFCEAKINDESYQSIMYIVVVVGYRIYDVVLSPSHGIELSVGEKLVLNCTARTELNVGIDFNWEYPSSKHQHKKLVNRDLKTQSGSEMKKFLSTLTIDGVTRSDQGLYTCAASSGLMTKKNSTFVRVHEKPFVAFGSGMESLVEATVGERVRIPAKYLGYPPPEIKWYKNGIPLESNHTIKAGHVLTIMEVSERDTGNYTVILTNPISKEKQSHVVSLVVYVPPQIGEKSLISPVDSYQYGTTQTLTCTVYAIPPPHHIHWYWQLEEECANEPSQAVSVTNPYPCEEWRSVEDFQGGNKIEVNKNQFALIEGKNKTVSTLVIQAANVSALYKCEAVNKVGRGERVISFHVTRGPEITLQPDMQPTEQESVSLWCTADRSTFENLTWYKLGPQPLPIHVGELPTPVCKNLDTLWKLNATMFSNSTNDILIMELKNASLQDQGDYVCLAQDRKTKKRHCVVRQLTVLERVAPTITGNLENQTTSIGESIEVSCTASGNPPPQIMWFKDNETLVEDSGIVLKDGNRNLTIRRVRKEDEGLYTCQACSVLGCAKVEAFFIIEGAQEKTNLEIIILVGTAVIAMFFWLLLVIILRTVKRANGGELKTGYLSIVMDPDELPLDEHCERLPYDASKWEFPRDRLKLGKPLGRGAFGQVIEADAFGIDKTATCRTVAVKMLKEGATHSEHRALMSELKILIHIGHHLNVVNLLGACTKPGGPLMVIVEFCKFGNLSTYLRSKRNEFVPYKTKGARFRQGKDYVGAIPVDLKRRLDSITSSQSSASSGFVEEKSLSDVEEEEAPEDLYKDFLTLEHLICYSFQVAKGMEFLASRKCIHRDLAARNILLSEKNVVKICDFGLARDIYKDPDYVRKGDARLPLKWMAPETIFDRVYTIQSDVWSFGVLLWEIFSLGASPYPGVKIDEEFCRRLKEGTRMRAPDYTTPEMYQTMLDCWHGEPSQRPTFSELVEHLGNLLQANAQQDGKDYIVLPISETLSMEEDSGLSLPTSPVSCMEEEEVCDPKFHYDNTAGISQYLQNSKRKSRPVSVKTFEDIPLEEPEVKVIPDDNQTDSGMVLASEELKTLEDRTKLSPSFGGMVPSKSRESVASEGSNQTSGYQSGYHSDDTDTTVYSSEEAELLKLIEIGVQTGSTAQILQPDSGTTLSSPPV
# Sequence of Tyrosine-protein kinase ABL1 (Homo sapiens) (P00519 whole entry): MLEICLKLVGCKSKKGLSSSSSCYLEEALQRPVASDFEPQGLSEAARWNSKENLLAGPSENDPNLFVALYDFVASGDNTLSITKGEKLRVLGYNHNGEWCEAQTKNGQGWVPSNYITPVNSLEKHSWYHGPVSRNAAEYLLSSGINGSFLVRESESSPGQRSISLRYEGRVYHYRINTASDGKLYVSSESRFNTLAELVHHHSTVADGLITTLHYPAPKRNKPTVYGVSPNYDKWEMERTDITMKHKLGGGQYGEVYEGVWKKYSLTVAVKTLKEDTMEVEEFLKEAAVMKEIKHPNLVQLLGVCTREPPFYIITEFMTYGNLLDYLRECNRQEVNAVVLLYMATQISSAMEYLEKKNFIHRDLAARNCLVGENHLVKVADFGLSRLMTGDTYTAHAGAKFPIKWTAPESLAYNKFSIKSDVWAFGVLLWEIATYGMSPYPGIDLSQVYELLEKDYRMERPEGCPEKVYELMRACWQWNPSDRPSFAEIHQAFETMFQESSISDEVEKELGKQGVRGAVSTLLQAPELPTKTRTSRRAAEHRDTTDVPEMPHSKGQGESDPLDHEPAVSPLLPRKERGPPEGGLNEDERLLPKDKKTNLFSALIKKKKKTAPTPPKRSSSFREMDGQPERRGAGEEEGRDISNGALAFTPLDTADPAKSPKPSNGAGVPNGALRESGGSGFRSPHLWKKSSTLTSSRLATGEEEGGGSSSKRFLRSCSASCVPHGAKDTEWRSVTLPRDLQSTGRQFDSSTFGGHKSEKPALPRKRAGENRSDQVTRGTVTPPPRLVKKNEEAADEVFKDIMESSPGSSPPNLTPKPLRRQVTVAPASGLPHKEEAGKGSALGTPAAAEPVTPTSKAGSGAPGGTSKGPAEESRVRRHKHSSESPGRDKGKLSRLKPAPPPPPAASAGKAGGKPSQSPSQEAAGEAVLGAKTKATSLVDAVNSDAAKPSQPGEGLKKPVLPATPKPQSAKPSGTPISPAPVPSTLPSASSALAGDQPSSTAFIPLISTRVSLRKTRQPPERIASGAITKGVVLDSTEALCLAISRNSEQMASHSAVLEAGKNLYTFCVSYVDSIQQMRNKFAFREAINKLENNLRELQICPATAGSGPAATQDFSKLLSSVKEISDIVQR
structure (smiles),measurement,setting,value
O=C(c1cc2cc(O)ccc2[nH]1)c1cc2c(Nc3ccc(F)c(Cl)c3)ncnc2s1,IC50,[1],9.08 µM
same,IC50,NCI-H460,6 µM
same,IC50,PANC-1,7.95 µM
same,IC50,[2],5.45 µM
same,IC50,[3],2.65 µM
same,IC50,[4],4.36 µM
same,IC50,CWR22R,5.61 µM
same,IC50,[5],6.28 µM
same,IC50,[6],3.45 µM
same,inhibition,[7],87%
same,IC50,[8],5.89 µM
same,IC50,OVCAR-3,9.08 µM
same,IC50,[9],7.04 µM
same,IC50,[10],7.65 µM
same,IC50,[11],3.37 µM
same,IC50,[12],5.87 µM
same,IC50,[13],9.23 µM
same,IC50,SAOS-2,8.2 µM
same,IC50,HCT-116,7.69 µM
same,inhibition,[14],10%
same,IC50,HT-29,13.7 µM
same,IC50,MKN-45,7.26 µM
same,IC50,[15],6.34 µM
same,inhibition,[16],inactive
same,IC50,[17],9.56 µM
same,inhibition,[18],98%
same,IC50,MCF7,4.22 µM
same,IC50,CAL-27,1280 nM
same,IC50,LNCaP,3.01 µM
same,IC50,[19],8.19 µM
same,IC50,[20],100 nM
same,IC50,RKO,6.01 µM
same,IC50,[21],6.02 µM
same,IC50,[22],4.09 µM
same,IC50,[23],4.09 µM
same,IC50,[24],940 nM
same,IC50,[25],5.97 µM
same,IC50,[26],24 nM
same,IC50,[27],3.25 µM
same,IC50,[28],4.07 µM
same,IC50,DU-145,2.96 µM
same,IC50,[29],9.59 µM
same,inhibition,[30],inactive
same,IC50,[31],4.87 µM
same,IC50,[32],8.85 µM
same,IC50,[33],4.87 µM
same,IC50,TE-671,10.1 µM
same,IC50,[34],7.58 µM
same,IC50,[35],6.02 µM
COc1ccc2[nH]c(C(=O)c3cc4c(Nc5ccc(F)c(Cl)c5)ncnc4s3)cc2c1,IC50,[1],24.6 µM
same,IC50,NCI-H460,15 µM
same,IC50,PANC-1,28.4 µM
same,IC50,[2],46.3 µM
same,IC50,[3],5 µM
same,IC50,[4],28.5 µM
same,IC50,CWR22R,11.1 µM
same,IC50,[5],31 µM
same,IC50,[6],4.9 µM
same,inhibition,[7],60%
same,IC50,[8],14.4 µM
same,IC50,OVCAR-3,24.6 µM
same,IC50,[9],9.3 µM
same,IC50,[10],17.1 µM
same,IC50,[11],10.2 µM
same,IC50,[12],21.1 µM
same,IC50,[13],26.7 µM
same,IC50,SAOS-2,30.1 µM
same,IC50,HCT-116,12.1 µM
same,inhibition,[14],55%
same,IC50,HT-29,9.8 µM
same,IC50,MKN-45,38.2 µM
same,IC50,[15],15.4 µM
same,inhibition,[16],inactive
same,IC50,[17],17.8 µM
same,inhibition,[18],96%
same,IC50,MCF7,11.3 µM
same,IC50,CAL-27,1600 nM
same,IC50,LNCaP,32.5 µM
same,IC50,[19],36 µM
same,IC50,RKO,15.8 µM
same,IC50,[21],16.7 µM
same,IC50,[22],3.9 µM
same,IC50,[23],4.2 µM
same,IC50,[24],1000 nM
same,IC50,[25],24.8 µM
same,IC50,[26],5.93 nM
same,IC50,[27],7.1 µM
same,IC50,[28],19 µM
same,IC50,DU-145,19.4 µM
same,IC50,[29],62.9 µM
same,inhibition,[30],inactive
same,IC50,[31],30.4 µM
same,IC50,[32],14.1 µM
same,IC50,[33],14.8 µM
same,IC50,TE-671,55 µM
same,IC50,[34],11.7 µM
same,IC50,[35],9 µM
